Test results reported in patent publication US8492371B2, “Compounds as cannabinoid receptor ligands” (priority 2009, dated 2013).
Read-outs that look alike come from different tables or passages of the source.

How the values were obtained:
human CB2 receptors = biological target: T1, human CB2 receptors (Homo sapiens, UniProt P34972); assay: Human CB2 radioligand binding assay ([3H]CP-55,940 competition)
T1 construct: expressed in transfected cells; host or cells: HEK293
Protocol: The CB1 and CB2 radioligand binding assays described herein are utilized to determine the selectivity of compounds of the present invention for binding to CB2 relative to CB1 receptors.
(§1) HEK293 cells stably expressing human CB2 receptors were grown until a confluent monolayer was formed. Briefly, the cells were harvested and homogenized in TE buffer (50 mM Tris-HCl, 1 mM MgCl2, and 1 mM EDTA) using a polytron for 2×10 second bursts in the presence of protease inhibitors, followed by centrifugation at 45,000×g for 20 minutes. The final membrane pellet was re-homogenized in storage buffer (50 mM Tris-HCl, 1 mM MgCl2, and 1 mM EDTA and 10% sucrose) and frozen at −78° C. until used. Saturation binding reactions were initiated by the addition of membrane preparation (protein concentration of 5 μg/well for human CB2) into wells of a deep well plate containing ([^3H]CP-55,940 (120 Ci/mmol, a nonselective CB agonist commercially available from Tocris) in assay buffer (50 mM Tris, 2.5 mM EDTA, 5 mM MgCl2, and 0.5 mg/mL fatty acid free BSA, pH 7.4). After 90 min incubation at 30° C., binding reaction was terminated by the addition of 300 μL/well of cold assay buffer followed by rapid vacuum filtration through a UniFilter-96 GF/C filter plates (pre-soaked in 1 mg/mL BSA for 2 hours). The bound activity was counted in a TopCount using Microscint-20. Saturation experiments were conducted with twelve concentrations of [^3H]CP-55,940 ranging from 0.01 to 8 nM. Competition experiments were conducted with 0.5 nM [^3H]CP-55,940 and five concentrations of displacing ligands selected from the range of 0.01 nM to 10 μM. The addition of 10 μM unlabeled CP-55,940 (Tocris, Ellisville, Mo.) was used to assess nonspecific binding.

rat CB2 receptors = biological target: T2, rat CB2 receptors (Rattus norvegicus, UniProt Q9QZN9); assay: Rat CB2 radioligand binding assay ([3H]CP-55,940 competition)
T2 construct: expressed in transfected cells; host or cells: HEK293
T2 sequence (Q9QZN9 1-360): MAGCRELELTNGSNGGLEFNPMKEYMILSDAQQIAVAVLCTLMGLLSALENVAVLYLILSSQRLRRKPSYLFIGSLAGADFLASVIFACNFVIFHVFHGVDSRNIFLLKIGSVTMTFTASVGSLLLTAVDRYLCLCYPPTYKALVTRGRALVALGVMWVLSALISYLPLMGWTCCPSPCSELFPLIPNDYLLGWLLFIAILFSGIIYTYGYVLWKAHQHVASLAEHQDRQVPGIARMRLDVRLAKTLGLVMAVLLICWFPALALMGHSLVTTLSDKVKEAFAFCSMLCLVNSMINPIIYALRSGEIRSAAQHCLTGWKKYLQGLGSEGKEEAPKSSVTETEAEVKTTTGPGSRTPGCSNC
Protocol: as §1, with “expressing rat” for “expressing human”, “of 20” for “of 5”, “for rat” for “for human”, “containing [^3H]CP-55,940” for “containing ([^3H]CP-55,940”, “After 45” for “After 90”, “[…]” for “10 μM.”

[1] = HEK293 membranes, 0.5 nM [3H]CP-55,940, read-out: human CB2 Ki

T1 sequence (P34972 whole entry): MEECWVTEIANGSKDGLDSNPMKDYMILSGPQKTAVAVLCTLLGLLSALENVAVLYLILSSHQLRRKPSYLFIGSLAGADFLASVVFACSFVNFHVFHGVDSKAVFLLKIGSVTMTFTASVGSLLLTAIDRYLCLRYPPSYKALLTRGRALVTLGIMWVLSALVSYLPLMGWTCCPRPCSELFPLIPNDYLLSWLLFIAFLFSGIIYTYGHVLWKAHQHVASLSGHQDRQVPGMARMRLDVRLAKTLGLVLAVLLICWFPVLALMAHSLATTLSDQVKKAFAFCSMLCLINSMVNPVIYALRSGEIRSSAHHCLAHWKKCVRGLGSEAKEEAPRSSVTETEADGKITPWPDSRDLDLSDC

SMILES	Ki (human CB2 receptors)	Ki (rat CB2 receptors)	Ki (human CB2 receptors; [1])	Ki (rat CB2 receptors; HEK293 membranes, 0.5 nM [3H]CP-55,940, read-out: rat CB2 Ki)
COc1ccc(C(F)(F)F)cc1C(=O)/N=c1\cc(C2(C)CC2)n(C)n1C[C@H]1CCCO1 [Example 33, 2-methoxy-N-{(3E)-1-methyl-5-(1-methylcyclopropyl)-2-[(2R)-tetrahydrofuran-2-ylmethyl]-1,2-dihydro-3H-pyrazol-3-ylidene}-5-(trifluoromethyl)benzamide]	81 nM	14 nM		
COCCNc1ccc(C(F)(F)F)cc1C(=O)/N=c1\cc(C(C)(C)C)n(C)n1C[C@H]1CCCO1 [Example 34]	11 nM	5.5 nM		
Cn1c(C(C)(C)C)c/c(=N\C(=O)c2cc(C(F)(F)F)ccc2OCC(F)F)n1C[C@H]1CCCO1 [Example 35, N-{(3E)-5-tert-butyl-1-methyl-2-[(2R)-tetrahydrofuran-2-ylmethyl]-1,2-dihydro-3H-pyrazol-3-ylidene}-2-(2,2-difluoroethoxy)-5-(trifluoromethyl)benzamide]	17 nM	5.5 nM		
Cn1c(C(C)(C)C)c/c(=N\C(=O)c2cc(C(F)(F)F)ccc2NCCF)n1C[C@H]1CCCO1 [Example 39, N-{(3E)-5-tert-butyl-1-methyl-2-[(2R)-tetrahydrofuran-2-ylmethyl]-1,2-dihydro-3H-pyrazol-3-ylidene}-2-[(2-fluoroethyl)amino]-5-(trifluoromethyl)benzamide]	8.9 nM	3.8 nM		
CC(F)COc1ccc(C(F)(F)F)cc1C(=O)/N=c1\cc(C(C)(C)C)n(C)n1C[C@H]1CCCO1 (stereo partly drawn) [Example 40, N-{(3E)-5-tert-butyl-1-methyl-2-[(2R)-tetrahydrofuran-2-ylmethyl]-1,2-dihydro-3H-pyrazol-3-ylidene}-2-(2-fluoropropoxy)-5-(trifluoromethyl)benzamide]	32 nM	22 nM		
C[C@@H](F)COc1ccc(C(F)(F)F)cc1C(=O)/N=c1\cc(C(C)(C)C)n(C)n1C[C@H]1CCCO1 [Example 41, N-{(3E)-5-tert-butyl-1-methyl-2-[(2R)-tetrahydrofuran-2-ylmethyl]-1,2-dihydro-3H-pyrazol-3-ylidene}-2-{[(2R)-2-fluoropropyl]oxy}-5-(trifluoromethyl)benzamide]	132 nM	18 nM		
CC(CF)Oc1ccc(C(F)(F)F)cc1C(=O)/N=c1\cc(C(C)(C)C)n(C)n1C[C@H]1CCCO1 (stereo partly drawn) [Example 42, N-{(3E)-5-tert-butyl-1-methyl-2-[(2R)-tetrahydrofuran-2-ylmethyl]-1,2-dihydro-3H-pyrazol-3-ylidene}-2-(2-fluoro-1-methylethoxy)-5-(trifluoromethyl)benzamide]	139 nM	30 nM		
Cn1c(C(C)(C)C)c/c(=N\C(=O)c2cc(C(F)(F)F)ccc2OCCC(C)(C)F)n1C[C@H]1CCCO1 [Example 43, N-{(3E)-5-tert-butyl-1-methyl-2-[(2R)-tetrahydrofuran-2-ylmethyl]-1,2-dihydro-3H-pyrazol-3-ylidene}-2-(3-fluoro-3-methylbutoxy)-5-(trifluoromethyl)benzamide]	19 nM	10 nM		
Cn1c(C(C)(C)C)c/c(=N\C(=O)c2cc(C(F)(F)F)ccc2OCC2(O)CCC2)n1C[C@H]1CCCO1 [Example 44, N-{(3E)-5-tert-butyl-1-methyl-2-[(2R)-tetrahydrofuran-2-ylmethyl]-1,2-dihydro-3H-pyrazol-3-ylidene}-2-[(1-hydroxycyclobutyl)methoxy]-5-(trifluoromethyl)benzamide]	17 nM	18 nM		
COc1ccc(Cl)cc1C(=O)/N=c1\cc(C(C)(C)C)n(C)n1C[C@H]1CCCO1 [Example 45, N-{(3E)-5-tert-butyl-1-methyl-2-[(2R)-tetrahydrofuran-2-ylmethyl]-1,2-dihydro-3H-pyrazol-3-ylidene}-5-chloro-2-methoxybenzamide]	8.2 nM	4.9 nM		
Cn1c(C(C)(C)C)c/c(=N\C(=O)c2cccc(C(F)(F)F)c2F)n1C[C@H]1CCCO1 [Example 46, N-{(3E)-5-tert-butyl-1-methyl-2-[(2R)-tetrahydrofuran-2-ylmethyl]-1,2-dihydro-3H-pyrazol-3-ylidene}-2-fluoro-3-(trifluoromethyl)benzamide]	0.7 nM	1.3 nM		
COc1ccc(C(F)(F)F)cc1C(=O)/N=c1\cc(C(C)(C)C)n(C)n1C[C@H]1CCCO1 [Example 47, N-{(3E)-5-tert-butyl-1-methyl-2-[(2R)-tetrahydrofuran-2-ylmethyl]-1,2-dihydro-3H-pyrazol-3-ylidene}-2-methoxy-5-(trifluoromethyl)benzamide]	17 nM	3.7 nM		
COc1ccc(C#N)cc1C(=O)/N=c1\cc(C(C)(C)C)n(C)n1C[C@H]1CCCO1 [Example 48]		29 nM	143 nM	
COc1ccc(Br)cc1C(=O)/N=c1\cc(C(C)(C)C)n(C)n1C[C@H]1CCCO1 [Example 49, 5-bromo-N-{(3E)-5-tert-butyl-1-methyl-2-[(2R)-tetrahydrofuran-2-ylmethyl]-1,2-dihydro-3H-pyrazol-3-ylidene}-2-methoxybenzamide]	56 nM	20 nM		
Cn1c(C(C)(C)C)c/c(=N\C(=O)c2cc(F)ccc2Cl)n1C[C@H]1CCCO1 [Example 50, N-{(3E)-5-tert-butyl-1-methyl-2-[(2R)-tetrahydrofuran-2-ylmethyl]-1,2-dihydro-3H-pyrazol-3-ylidene}-2-chloro-5-fluorobenzamide]	63 nM	54 nM		
Cn1c(C(C)(C)C)c/c(=N\C(=O)c2cc(F)cc(F)c2F)n1C[C@H]1CCCO1 [Example 51, N-{(3E)-5-tert-butyl-1-methyl-2-[(2R)-tetrahydrofuran-2-ylmethyl]-1,2-dihydro-3H-pyrazol-3-ylidene}-2,3,5-trifluorobenzamide]	68 nM	67 nM		
Cn1c(C(C)(C)C)c/c(=N\C(=O)c2cc(C(F)(F)F)cc(Cl)c2F)n1C[C@H]1CCCO1 [Example 52, N-{(3E)-5-tert-butyl-1-methyl-2-[(2R)-tetrahydrofuran-2-ylmethyl]-1,2-dihydro-3H-pyrazol-3-ylidene}-3-chloro-2-fluoro-5-(trifluoromethyl)benzamide]	6.6 nM	1.3 nM		
COc1c(Cl)cc(C(F)(F)F)cc1C(=O)/N=c1\cc(C(C)(C)C)n(C)n1C[C@H]1CCCO1 [Example 53, N-{(3E)-5-tert-butyl-1-methyl-2-[(2R)-tetrahydrofuran-2-ylmethyl]-1,2-dihydro-3H-pyrazol-3-ylidene}-3-chloro-2-methoxy-5-(trifluoromethyl)benzamide]	16 nM	4.3 nM		
Cn1c(C(C)(C)C)c/c(=N\C(=O)c2cc(C(F)(F)F)ccc2Cl)n1C[C@H]1CCCO1 [Example 54, N-{(3E)-5-tert-butyl-1-methyl-2-[(2R)-tetrahydrofuran-2-ylmethyl]-1,2-dihydro-3H-pyrazol-3-ylidene}-2-chloro-5-(trifluoromethyl)benzamide]	17 nM	9.5 nM		
COc1c(F)cc(F)cc1C(=O)/N=c1\cc(C(C)(C)C)n(C)n1C[C@H]1CCCO1 [Example 55, N-{(3E)-5-tert-butyl-1-methyl-2-[(2R)-tetrahydrofuran-2-ylmethyl]-1,2-dihydro-3H-pyrazol-3-ylidene}-3,5-difluoro-2-methoxybenzamide]			152 nM	143 nM
